Laboratory results: ChEMBL document CHEMBL5058564, “EUbOPEN Chemogenomics Library 2 (Incucyte)” (2022)
Where a SMILES comes first, the peptide text is derived from it. [ ]: non-standard residue; d: D form. Arg(Me) = CNC(=N)NCCC[C@H](N)C(=O)O; d3Pal = N[C@H](Cc1cccnc1)C(=O)O; azaGly = NNC(=O)O

Legend:
Assay type in all cases: toxicity, cell-based
HEK-293T = assay: Incucyte cell viability with HEK293T; conditions: human, 10 µM, compound concentration 10 uM
Fibroblast = assay: Incucyte cell viability with human fibroblast; conditions: 10 µM, compound concentration 10 uM
U2OS = assay: Incucyte cell viability with U2OS; conditions: human, 10 µM, compound concentration 10 uM
[1] = 0 h, replicate number 1, timepoint 0 hours
[2] = 6 h, replicate number 1, timepoint 6 hours
[3] = 12 h, replicate number 1, timepoint 12 hours
[4] = 18 h, replicate number 1, timepoint 18 hours
[5] = 24 h, replicate number 1, timepoint 24 hours
[6] = 0 h, replicate number 2, timepoint 0 hours
[7] = 12 h, replicate number 2, timepoint 12 hours
[8] = 18 h, replicate number 2, timepoint 18 hours
[9] = 24 h, replicate number 2, timepoint 24 hours
[10] = 6 h, replicate number 2, timepoint 6 hours
Further: unitless GR value; below 1 slowed growth and below 0 cell loss.

CN(C)C(=O)Cn1cc(-c2ccc(-c3nnc4ccccn34)cc2)cn1
Growth Rate (HEK-293T; [1]): 0.69 | Growth Rate (HEK-293T; [2]): 0.7 | Growth Rate (HEK-293T; [3]): 0.74 | Growth Rate (HEK-293T; [4]): 0.88 | Growth Rate (HEK-293T; [5]): 0.78 | Growth Rate (Fibroblast; [1]): 0.68 | Growth Rate (Fibroblast; [6]): 0.31 | Growth Rate (Fibroblast; [3]): 0.37 | Growth Rate (Fibroblast; [7]): 0.94 | Growth Rate (Fibroblast; [4]): 0.8 | Growth Rate (Fibroblast; [8]): 0.91 | Growth Rate (Fibroblast; [5]): 0.56 | Growth Rate (Fibroblast; [9]): 0.74 | Growth Rate (U2OS; [1]): -0.47 | Growth Rate (U2OS; [6]): 0.08 | Growth Rate (U2OS; [2]): 0.68 | Growth Rate (U2OS; [3]): 0.46 | Growth Rate (U2OS; [4]): 0.79 | Growth Rate (U2OS; [8]): 0.91 | Growth Rate (U2OS; [5]): 0.83

CNC(=N)NCCC[C@H](NC(=O)[C@H](CC(C)C)NC(=O)NNC(=O)[C@H](Cc1ccccc1)NC(=O)[C@H](CO)NC(=O)[C@H](CC(N)=O)NC(=O)[C@@H](Cc1cccnc1)NC(=O)[C@H](N)Cc1ccc(O)cc1)C(=O)NCC(N)=O [KISS1-543] (H-[dY][d3Pal]NSF[azaGly]L[Arg(Me)]G-NH2)
Growth Rate (HEK-293T; [1]): 0.75 | Growth Rate (HEK-293T; [6]): 0.71 | Growth Rate (HEK-293T; [2]): 0.69 | Growth Rate (HEK-293T; [3]): 0.68 | Growth Rate (HEK-293T; [4]): 0.68 | Growth Rate (HEK-293T; [5]): 0.71 | Growth Rate (HEK-293T; [9]): 0.84 | Growth Rate (Fibroblast; [6]): 0.66 | Growth Rate (Fibroblast; [10]): 0.8 | Growth Rate (Fibroblast; [3]): 0.41 | Growth Rate (Fibroblast; [4]): 0.5 | Growth Rate (Fibroblast; [8]): 0.76 | Growth Rate (Fibroblast; [5]): 0.46 | Growth Rate (Fibroblast; [9]): 0.72 | Growth Rate (U2OS; [6]): 0.72 | Growth Rate (U2OS; [2]): 0.84 | Growth Rate (U2OS; [7]): 0.89 | Growth Rate (U2OS; [8]): 0.99 | Growth Rate (U2OS; [9]): 1

COc1cc2nc(N(C)CCCNC(=O)C3CCCO3)nc(N)c2cc1OC.Cl (centres undefined) [ALFUZOSIN HYDROCHLORIDE]
Growth Rate (HEK-293T; [1]): 0.21 | Growth Rate (HEK-293T; [6]): 0.19 | Growth Rate (HEK-293T; [2]): 0.54 | Growth Rate (HEK-293T; [4]): 0.99 | Growth Rate (HEK-293T; [5]): 0.99 | Growth Rate (HEK-293T; [9]): 0.96 | Growth Rate (Fibroblast; [1]): 0.72 | Growth Rate (Fibroblast; [6]): 0.06 | Growth Rate (Fibroblast; [10]): 0.11 | Growth Rate (Fibroblast; [7]): 0.51 | Growth Rate (Fibroblast; [8]): 0.61 | Growth Rate (Fibroblast; [5]): 0.72 | Growth Rate (Fibroblast; [9]): 0.47 | Growth Rate (U2OS; [1]): -0.55 | Growth Rate (U2OS; [2]): 0.24 | Growth Rate (U2OS; [10]): 0.85 | Growth Rate (U2OS; [3]): 0.43 | Growth Rate (U2OS; [7]): 0.97 | Growth Rate (U2OS; [4]): 0.72 | Growth Rate (U2OS; [8]): 0.93 | Growth Rate (U2OS; [5]): 0.81

CC(C)(C)c1ccc(-c2coc3ccc(-c4cn[nH]c4)nc23)cc1
Growth Rate (HEK-293T; [2]): 0.36 | Growth Rate (HEK-293T; [10]): 0.2 | Growth Rate (HEK-293T; [3]): 0.44 | Growth Rate (HEK-293T; [7]): 0.39 | Growth Rate (HEK-293T; [4]): 0.66 | Growth Rate (HEK-293T; [5]): 0.67 | Growth Rate (HEK-293T; [9]): 0.62 | Growth Rate (Fibroblast; [2]): -0.89 | Growth Rate (Fibroblast; [10]): -0.35 | Growth Rate (Fibroblast; [3]): -0.7 | Growth Rate (Fibroblast; [7]): 0 | Growth Rate (Fibroblast; [4]): -0.62 | Growth Rate (Fibroblast; [8]): 0.05 | Growth Rate (Fibroblast; [5]): -0.48 | Growth Rate (Fibroblast; [9]): 0.09 | Growth Rate (U2OS; [1]): 0.4 | Growth Rate (U2OS; [7]): 0.79 | Growth Rate (U2OS; [4]): 0.76 | Growth Rate (U2OS; [8]): 0.53 | Growth Rate (U2OS; [5]): 0.69 | Growth Rate (U2OS; [9]): 0.43

CC#C[C@@H](CC(=O)O)c1ccc(OCc2cccc(-c3ccc(C(F)(F)F)cc3)c2)cc1
Growth Rate (HEK-293T; [10]): 0.55 | Growth Rate (HEK-293T; [7]): 0.95 | Growth Rate (HEK-293T; [4]): 0.65 | Growth Rate (HEK-293T; [8]): 0.93 | Growth Rate (HEK-293T; [5]): 0.68 | Growth Rate (Fibroblast; [2]): 0.66 | Growth Rate (Fibroblast; [10]): -0.08 | Growth Rate (Fibroblast; [7]): 0.23 | Growth Rate (Fibroblast; [8]): 0.02 | Growth Rate (Fibroblast; [5]): 0.66 | Growth Rate (Fibroblast; [9]): 0.31 | Growth Rate (U2OS; [1]): 0.35 | Growth Rate (U2OS; [10]): 0.69 | Growth Rate (U2OS; [7]): 0.96 | Growth Rate (U2OS; [4]): 0.85 | Growth Rate (U2OS; [8]): 0.96

O=C1NC(NC23CC4CC(CC(C4)C2)C3)=N/C1=C\c1ccc2ncsc2c1
Growth Rate (HEK-293T; [1]): -0.13 | Growth Rate (HEK-293T; [6]): -0.17 | Growth Rate (HEK-293T; [3]): 0.28 | Growth Rate (HEK-293T; [7]): 0.24 | Growth Rate (HEK-293T; [4]): 0.03 | Growth Rate (HEK-293T; [8]): 0.09 | Growth Rate (HEK-293T; [5]): 0.01 | Growth Rate (HEK-293T; [9]): 0.06 | Growth Rate (Fibroblast; [1]): -0.85 | Growth Rate (Fibroblast; [6]): 0.36 | Growth Rate (U2OS; [1]): -0.86 | Growth Rate (U2OS; [6]): -1 | Growth Rate (U2OS; [4]): 0.56 | Growth Rate (U2OS; [8]): 0.88 | Growth Rate (U2OS; [5]): 0.62 | Growth Rate (U2OS; [9]): 0.7

Cc1ccccc1N1CCN(S(=O)(=O)C[C@]23CC[C@H](C[C@@H]2NC(=O)[C@@H](N)CCS(C)(=O)=O)C3(C)C)CC1.Cl
Growth Rate (HEK-293T; [1]): 0.81 | Growth Rate (HEK-293T; [6]): 0.34 | Growth Rate (HEK-293T; [2]): 0.8 | Growth Rate (HEK-293T; [3]): 0.81 | Growth Rate (HEK-293T; [7]): 0.75 | Growth Rate (HEK-293T; [4]): 0.84 | Growth Rate (HEK-293T; [8]): 0.92 | Growth Rate (HEK-293T; [5]): 0.97 | Growth Rate (HEK-293T; [9]): 0.93 | Growth Rate (Fibroblast; [1]): 0.33 | Growth Rate (Fibroblast; [6]): 0.56 | Growth Rate (Fibroblast; [7]): 0.8 | Growth Rate (Fibroblast; [8]): 0.91 | Growth Rate (Fibroblast; [9]): 0.76 | Growth Rate (U2OS; [1]): -0.8 | Growth Rate (U2OS; [6]): -0.25 | Growth Rate (U2OS; [2]): 0.91 | Growth Rate (U2OS; [3]): 0.85 | Growth Rate (U2OS; [4]): 0.77 | Growth Rate (U2OS; [5]): 0.89 | Growth Rate (U2OS; [9]): 1

C[C@H](NC(=O)CNC(=O)c1cccc(Cl)c1)c1ccccc1
Growth Rate (HEK-293T; [6]): 0.84 | Growth Rate (HEK-293T; [7]): 0.96 | Growth Rate (Fibroblast; [1]): 0.45 | Growth Rate (Fibroblast; [6]): 0.36 | Growth Rate (U2OS; [1]): -0.7 | Growth Rate (U2OS; [10]): 0.8 | Growth Rate (U2OS; [7]): 0.94 | Growth Rate (U2OS; [8]): 0.91 | Growth Rate (U2OS; [9]): 0.98

CC1=C(C)C(=O)C(C(CCCCCC(=O)O)c2ccccc2)=C(C)C1=O (centres undefined) [SERATRODAST]
Growth Rate (HEK-293T; [10]): 0.54 | Growth Rate (HEK-293T; [7]): 0.63 | Growth Rate (Fibroblast; [1]): 1 | Growth Rate (Fibroblast; [2]): 0.67 | Growth Rate (U2OS; [1]): -0.5 | Growth Rate (U2OS; [6]): -1 | Growth Rate (U2OS; [9]): 0.99

Cc1noc(C)c1-c1cnc2c(-c3ccc(C(=O)O)cc3)cn([C@@H](C)c3ccccn3)c2c1 [PLX-51107]
Growth Rate (HEK-293T; [4]): 0.88 | Growth Rate (HEK-293T; [5]): 0.6 | Growth Rate (Fibroblast; [6]): 0.17 | Growth Rate (Fibroblast; [2]): 0.13 | Growth Rate (Fibroblast; [10]): 0.81 | Growth Rate (Fibroblast; [7]): 0.99 | Growth Rate (U2OS; [1]): -0.01 | Growth Rate (U2OS; [6]): -0.06 | Growth Rate (U2OS; [2]): 0.72 | Growth Rate (U2OS; [10]): 0.86 | Growth Rate (U2OS; [3]): 0.5 | Growth Rate (U2OS; [4]): 0.73 | Growth Rate (U2OS; [8]): 0.96 | Growth Rate (U2OS; [5]): 0.96
